Assay results from patent US7550469B2, “Heterocyclic amide derivatives and their use as dopamine D3 receptor ligands” (Aventis Pharmaceuticals Inc., priority 2001, dated 2009).
Read-outs that look alike come from different tables or passages of the source.

Target: T1, cloned human dopamine D3 receptors (Homo sapiens, UniProt P35462)
T1 construct: expressed in transfected cells; membrane homogenate
Assay: [N-Methyl-3H]Spiroperidol binding to cloned human dopamine D3 receptors (Protocol 1)
In short: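 Radioligand displacement with [N-methyl-3H]spiroperidol used a physiological-salt Tris buffer (0.05 M, pH 7.7; NaCl 120 mM, KCl 5 mM, CaCl2 2 mM, MgCl2 1 mM) and membranes of a high-expressing stable CHO clone carrying human D3. Total ligand concentration came from measured added CPM; 0.1% ascorbic acid was optional for oxidizable compounds.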

[1] = the 14th table, read-out: D3 Ki
[2] = the 13th table, unit inferred, read-out: D3Ki

T1 sequence (P35462 whole entry): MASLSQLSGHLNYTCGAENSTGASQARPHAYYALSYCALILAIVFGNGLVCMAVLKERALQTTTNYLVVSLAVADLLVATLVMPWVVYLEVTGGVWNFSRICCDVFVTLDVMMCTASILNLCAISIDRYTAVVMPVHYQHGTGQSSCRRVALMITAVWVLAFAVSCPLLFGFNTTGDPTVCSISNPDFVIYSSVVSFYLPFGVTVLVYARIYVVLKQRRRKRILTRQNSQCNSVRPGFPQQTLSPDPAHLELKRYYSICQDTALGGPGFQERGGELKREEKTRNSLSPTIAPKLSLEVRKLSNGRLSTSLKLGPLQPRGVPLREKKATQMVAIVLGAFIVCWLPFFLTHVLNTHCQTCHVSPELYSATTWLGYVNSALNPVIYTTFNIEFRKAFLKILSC

## O=C(NCCCCN1CCN(c2c(Cl)sc3cc(C(F)(F)F)ccc23)CC1)c1ccccc1C(F)(F)F [compound 815573]
read-out: D3K1
  Ki: 35 nM

## COc1ccccc1C(=O)NCCCCN1CCN(c2c(Cl)sc3cc(C(F)(F)F)ccc23)CC1 [compound 815574]
read-out: D3K1
  Ki: 53 nM

## O=C(NCCCCN1CCN(c2c(Cl)sc3cc(C(F)(F)F)ccc23)CC1)c1ccc(C(F)(F)F)cc1 [compound 815575]
read-out: D3K1
  Ki: 50 nM

## O=C(NCCCCN1CCN(c2c(Cl)sc3cc(C(F)(F)F)ccc23)CC1)c1ccco1 [compound 815576]
read-out: D3K1
  Ki: 63 nM

## O=C(NCCCCN1CCN(c2c(Cl)sc3cc(C(F)(F)F)ccc23)CC1)c1c(F)cccc1F [compound 815577]
read-out: D3K1
  Ki: 95 nM

## O=C(NCCCCN1CCN(c2c(Cl)sc3cc(C(F)(F)F)ccc23)CC1)c1ccccc1Br [compound 815578]
read-out: D3K1
  Ki: 117 nM

## O=C(NCCCCN1CCN(c2c(Cl)sc3cc(C(F)(F)F)ccc23)CC1)C1CCCC1 [compound 815579]
read-out: D3K1
  Ki: 104 nM

## COc1ccc(C(=O)N[C@@H](CO)CCCN2CCN(c3csc4cc(C(F)(F)F)ccc34)CC2)cc1OC [compound 815665]
read-out: D3K1
  Ki: 163 nM
[1]
  Ki: 163 nM

## CC(=O)Nc1ccc(C(=O)N[C@@H](CO)CCCN2CCN(c3csc4cc(C(F)(F)F)ccc34)CC2)cc1 [compound 815667]
read-out: D3K1
  Ki: 203 nM
[1]
  Ki: 203 nM

## COc1ccc(C(=O)N[C@@H](CO)CCCN2CCN(c3csc4cc(C(F)(F)F)ccc34)CC2)cc1 [compound 815668]
read-out: D3K1
  Ki: 150 nM
[1]
  Ki: 150 nM

## O=C(N[C@@H](CO)CCCN1CCN(c2csc3cc(C(F)(F)F)ccc23)CC1)c1ccc(-c2ccccc2)cc1 [compound 815670]
read-out: D3K1
  Ki: 192 nM
[1]
  Ki: 192 nM

## Cc1ccc(C(=O)N[C@@H](CO)CCCN2CCN(c3csc4cc(C(F)(F)F)ccc34)CC2)cc1 [compound 815671]
read-out: D3K1
  Ki: 309 nM
[1]
  Ki: 309 nM

## O=C(N[C@@H](CO)CCCN1CCN(c2csc3cc(C(F)(F)F)ccc23)CC1)c1cc2ccccc2[nH]1 [compound 815674]
Table 2, read-out: D3K1
  Ki: 314 nM
read-out: D3K1
  Ki: 314 nM
[1]
  Ki: 314 nM

## O=C(N[C@@H](CO)CCCN1CCN(c2csc3cc(C(F)(F)F)ccc23)CC1)c1ccc2[nH]ccc2c1 [compound 815676]
Table 2, read-out: D3K1
  Ki: 224 nM
read-out: D3K1
  Ki: 224 nM
[1]
  Ki: 224 nM

## O=C(N[C@@H](CO)CCCN1CCN(c2csc3cc(C(F)(F)F)ccc23)CC1)c1cc2ccccc2o1 [compound 815677]
Table 2, read-out: D3K1
  Ki: 297 nM
read-out: D3K1
  Ki: 297 nM
[1]
  Ki: 297 nM

## O=C(N[C@@H](CO)CCCN1CCN(c2csc3cc(C(F)(F)F)ccc23)CC1)c1ccc(Br)cc1 [compound 815679]
Table 2, read-out: D3K1
  Ki: 129 nM
read-out: D3K1
  Ki: 129 nM
[1]
  Ki: 129 nM

## CCn1cc(C(=O)N[C@@H](CO)CCCN2CCN(c3csc4cc(C(F)(F)F)ccc34)CC2)c(=O)c2ccc(C)nc21 [compound 815680]
Table 2, read-out: D3K1
  Ki: 197 nM
read-out: D3K1
  Ki: 197 nM
[1]
  Ki: 197 nM

## CSc1ncccc1C(=O)N[C@@H](CO)CCCN1CCN(c2csc3cc(C(F)(F)F)ccc23)CC1 [compound 815681]
Table 2, read-out: D3K1
  Ki: 261 nM
read-out: D3K1
  Ki: 261 nM
[1]
  Ki: 261 nM

## O=C(NC(CO)CCCN1CCN(c2csc3cc(C(F)(F)F)ccc23)CC1)c1cc2ccccc2s1 (stereo not shown) [compound 815684]
Table 2, read-out: D3K1
  Ki: 208 nM
read-out: D3K1
  Ki: 208 nM
[1]
  Ki: 208 nM

## O=C(NC(CO)CCCN1CCN(c2csc3cc(C(F)(F)F)ccc23)CC1)c1ccc2c(c1)S(=O)(=O)c1ccccc1C2=O (stereo not shown) [compound 815685]
Table 2, read-out: D3K1
  Ki: 186 nM
read-out: D3K1
  Ki: 186 nM
[1]
  Ki: 186 nM

## O=C(NC(CO)CCCN1CCN(c2csc3cc(C(F)(F)F)ccc23)CC1)c1cc2ccc(Cl)cc2s1 (stereo not shown) [compound 815686]
Table 2, read-out: D3K1
  Ki: 275 nM
read-out: D3K1
  Ki: 275 nM
[1]
  Ki: 275 nM

## O=C(NC(CO)CCCN1CCN(c2csc3cc(C(F)(F)F)ccc23)CC1)c1ccccc1C(F)(F)F (stereo not shown) [compound 815688]
Table 2, read-out: D3K1
  Ki: 190 nM
read-out: D3K1
  Ki: 190 nM
[1]
  Ki: 190 nM

## COc1ccc(C(=O)NC(CO)CCCN2CCN(c3csc4cc(C(F)(F)F)ccc34)CC2)cc1OC (stereo not shown) [compound 815689]
Table 2, read-out: D3K1
  Ki: 225 nM
read-out: D3K1
  Ki: 225 nM
[1]
  Ki: 225 nM

## O=C(NC(CO)CCCN1CCN(c2csc3cc(C(F)(F)F)ccc23)CC1)c1ccc(Cl)cc1 (stereo not shown) [compound 815690]
Table 2, read-out: D3K1
  Ki: 245 nM
read-out: D3K1
  Ki: 245 nM
[1]
  Ki: 245 nM

## CC(=O)Nc1ccc(C(=O)N[C@H](CO)CCCN2CCN(c3csc4cc(C(F)(F)F)ccc34)CC2)cc1 [compound 815691]
Table 2, read-out: D3K1
  Ki: 241 nM
read-out: D3K1
  Ki: 241 nM
[1]
  Ki: 241 nM

## COc1ccc(C(=O)N[C@H](CO)CCCN2CCN(c3csc4cc(C(F)(F)F)ccc34)CC2)cc1 [compound 815692]
Table 2, read-out: D3K1
  Ki: 191 nM
read-out: D3K1
  Ki: 191 nM
[1]
  Ki: 191 nM

## O=C(N[C@H](CO)CCCN1CCN(c2csc3cc(C(F)(F)F)ccc23)CC1)c1ccc(-c2ccccc2)cc1 [compound 815694]
Table 2, read-out: D3K1
  Ki: 197 nM
read-out: D3K1
  Ki: 197 nM
[1]
  Ki: 197 nM

## Cc1ccc(C(=O)N[C@H](CO)CCCN2CCN(c3csc4cc(C(F)(F)F)ccc34)CC2)cc1 [compound 815695]
Table 2, read-out: D3K1
  Ki: 198 nM
read-out: D3K1
  Ki: 198 nM
[1]
  Ki: 198 nM

## O=C(N[C@H](CO)CCCN1CCN(c2csc3cc(C(F)(F)F)ccc23)CC1)c1ccco1 [compound 815696]
Table 2, read-out: D3K1
  Ki: 871 nM
read-out: D3K1
  Ki: 871 nM
[1]
  Ki: 871 nM

## O=C(N[C@H](CO)CCCN1CCN(c2csc3cc(C(F)(F)F)ccc23)CC1)c1ccc2ccccc2c1 [compound 815697]
Table 2, read-out: D3K1
  Ki: 294 nM
read-out: D3K1
  Ki: 294 nM
[1]
  Ki: 294 nM

## O=C(N[C@H](CO)CCCN1CCN(c2csc3cc(C(F)(F)F)ccc23)CC1)c1cc2ccccc2[nH]1 [compound 815698]
Table 2, read-out: D3K1
  Ki: 329 nM
read-out: D3K1
  Ki: 329 nM
[1]
  Ki: 329 nM

## O=C(N[C@H](CO)CCCN1CCN(c2csc3cc(C(F)(F)F)ccc23)CC1)c1ccc2[nH]ccc2c1 [compound 815700]
Table 2, read-out: D3K1
  Ki: 128 nM
read-out: D3K1
  Ki: 128 nM
[1]
  Ki: 128 nM

## O=C(N[C@H](CO)CCCN1CCN(c2csc3cc(C(F)(F)F)ccc23)CC1)c1cnccn1 [compound 815702]
Table 2, read-out: D3K1
  Ki: 439 nM
read-out: D3K1
  Ki: 439 nM
[1]
  Ki: 439 nM

## CCn1cc(C(=O)NC(CO)CCCN2CCN(c3csc4cc(C(F)(F)F)ccc34)CC2)c(=O)c2ccc(C)nc21 (stereo not shown) [compound 815704]
Table 2, read-out: D3K1
  Ki: 137 nM
read-out: D3K1
  Ki: 137 nM
[1]
  Ki: 137 nM

## O=C(N[C@H](CO)CCCN1CCN(c2csc3cc(C(F)(F)F)ccc23)CC1)c1cc2ccccc2s1 [compound 815708]
Table 2, read-out: D3K1
  Ki: 180 nM
read-out: D3K1
  Ki: 180 nM
[1]
  Ki: 180 nM

## O=C(N[C@H](CO)CCCN1CCN(c2csc3cc(C(F)(F)F)ccc23)CC1)c1ccc2c(c1)S(=O)(=O)c1ccccc1C2=O [compound 815709]
Table 2, read-out: D3K1
  Ki: 124 nM
read-out: D3K1
  Ki: 124 nM
[1]
  Ki: 124 nM

## O=C(N[C@H](CO)CCCN1CCN(c2csc3cc(C(F)(F)F)ccc23)CC1)c1cc2ccc(Cl)cc2s1 [compound 815710]
Table 2, read-out: D3K1
  Ki: 210 nM
read-out: D3K1
  Ki: 210 nM
[1]
  Ki: 210 nM

## O=C(NCCCCN1CCN(c2c(-c3ccccc3)sc3cc(F)ccc23)CC1)c1cccc(F)c1 [compound 815870]
Table 2, read-out: D3K1
  Ki: 28.4 nM
[1]
  Ki: 28.4 nM

## O=C(NCCCCN1CCN(c2c(-c3ccccc3)sc3cc(F)ccc23)CC1)c1ccc(C(F)(F)F)cc1 [compound 815871]
Table 2, read-out: D3K1
  Ki: 796 nM
[1]
  Ki: 796 nM

## O=C(NCCCCN1CCN(c2c(-c3ccccc3)sc3cc(F)ccc23)CC1)c1ccc(-c2ccccc2)cc1 [compound 815872]
Table 2, read-out: D3K1
  Ki: 567 nM

## O=C(NCCCCN1CCN(c2c(-c3ccccc3)sc3cc(F)ccc23)CC1)c1cc2ccccc2s1 [compound 815873]
Table 2, read-out: D3K1
  Ki: 263 nM

## O=C(NCCCCN1CCN(c2c(-c3ccccc3)sc3cc(F)ccc23)CC1)c1ccc(Br)cc1 [compound 815874]
Table 2, read-out: D3K1
  Ki: 282 nM

## O=C(NCCCCN1CCN(c2c(-c3ccccc3)sc3cc(F)ccc23)CC1)c1cccs1 [compound 815879]
Table 2, read-out: D3K1
  Ki: 292 nM

## O=C(NCCCCN1CCN(c2c(-c3ccccc3)sc3cc(F)ccc23)CC1)c1ccc(Cl)cc1 [compound 815880]
Table 2, read-out: D3K1
  Ki: 837 nM

## O=C(NCCCCN1CCN(c2c(-c3ccccc3)sc3cc(F)ccc23)CC1)c1ccc(F)cc1 [compound 815883]
Table 2, read-out: D3K1
  Ki: 339 nM

## O=C(Cc1cccs1)NCCCCN1CCN(c2c(-c3ccccc3)sc3cc(F)ccc23)CC1 [compound 815884]
Table 2, read-out: D3K1
  Ki: 296 nM

## O=C(NCCCCCN1CCC(c2noc3ccsc23)CC1)c1cc2ccccc2s1 [compound 816196]
[2]
  Ki: 161 nM

## O=C(NCCCCCN1CCC(c2noc3ccsc23)CC1)c1ccc2ccccc2c1 [compound 816197]
[2]
  Ki: 116 nM

## CCOc1ccc(C(=O)NCCCCCN2CCC(c3noc4ccsc34)CC2)cc1 [compound 816198]
[2]
  Ki: 110 nM

## O=C(NCCCCCN1CCC(c2noc3ccsc23)CC1)c1ccc(Cl)cc1 [compound 816199]
[2]
  Ki: 157 nM

## CCCCCCC(=O)NCCCCCN1CCC(c2noc3ccsc23)CC1 [compound 816202]
[2]
  Ki: 326 nM

## C=CCCCCCCC(=O)NCCCCCN1CCC(c2noc3ccsc23)CC1 [compound 816203]
[2]
  Ki: 94.1 nM

## O=C(NCCCCCN1CCC(c2noc3ccsc23)CC1)C(Cl)c1ccccc1 (stereo not shown) [compound 816204]
[2]
  Ki: 218 nM

## O=C(NCCCCCN1CCC(c2noc3ccsc23)CC1)C1CCCC1 [compound 816205]
[2]
  Ki: 455 nM

## O=C(Cc1cc2ccccc2s1)NCCCCCN1CCC(c2noc3ccsc23)CC1 [compound 816206]
[2]
  Ki: 505 nM

## O=C(NCCCCCN1CCC(c2noc3ccsc23)CC1)c1ccccc1[N+](=O)[O-] [compound 816207]
[2]
  Ki: 182 nM

## O=C(NCCCCCN1CCC(c2noc3ccsc23)CC1)c1ccc(-c2ccccc2)cc1 [compound 816208]
[2]
  Ki: 84.9 nM

## O=C(NCCCCCN1CCC(c2noc3ccsc23)CC1)c1ccccc1C(F)(F)F [compound 816211]
[2]
  Ki: 224 nM

## O=C(NCCCCCN1CCC(c2noc3ccsc23)CC1)c1ccccc1 [compound 816212]
[2]
  Ki: 570 nM

## O=C(NCCCCCN1CCC(c2noc3ccsc23)CC1)c1cccc(Cl)c1 [compound 816214]
[2]
  Ki: 264 nM

## COc1ccc(C(=O)NCCCCCN2CCC(c3noc4ccsc34)CC2)cc1OC [compound 816215]
[2]
  Ki: 272 nM
